Tests used:
[1] = system: subjects with MDD at imminent risk for suicide; test: Beck Hopelessness Scale (BHS), Study […]2001; format: in vivo, human; details: 84 mg; for BHS total score change, Diff. of LS Means (minus Placebo): ANCOVA LOCF; for BHS total score, change from baseline, mean / BHS total score, change from baseline, median / BHS total score, mean / BHS total score, median: LOCF, N 35
Text: • a. Changes from baseline to Day 2 and Day 25 for the MADRS total score • b. Changes from baseline to Day 1 4-hours postdose, Day 2 and Day 25 for the MADRS Suicide Item • c. Changes from baseline to Day 1 4-hours postdose, Day 2, and Day 25 for the clinical global judgment of suicide risk from the Suicide Ideation and Behavior Assessment Tool (SIBAT) • d. Sustained response (Onset of Clinical Response) defined as at least 50% reduction from baseline in MADRS total score with onset on Day 1 that is maintained through the end of the double-blind phase (Day 25) • e. Changes from baseline to Day 1 4-hours postdose, Day 2, and Day 25 for the Beck Scale for Suicidal Ideation (BSS) • f. Changes from baseline to Day 1 4-hours postdose and Day 25 for the Beck Hopelessness Scale
The BHS is a self-reported measure to assess one's level of negative expectations or pessimism regarding the future. It consists of 20 true-false items that examine the respondent's attitude over the past week by either endorsing a pessimistic statement or denying an optimistic statement. For every statement, each response is assigned a score of 0 or 1. The total BHS score is a sum of item responses and ranges from 0 to 20, with a higher score representing a higher level of hopelessness.

[2] = system: patients with treatment-resistant depression (TRD); test: GAD-7, phase 2 dose-response study in TRD; format: in vivo, human
Experimental: Overall illness severity was assessed on the Clinical Global Impression of Severity (CGI-S) scale (Guy, “ECDEU Assessment Manual for Psychopharmacology-Revised (DHEW Publ No ADM 76-338)”, Rockville, Md.: U.S. Department of Health, Education, and Welfare, Public Health Service, Alcohol, Drug Abuse, and Mental Health Administration, NIMH Psychopharmacology Research Branch, Division of Extramural Research Programs; 1976, pp 218-222). Participants assessed their severity of anxiety on the Generalized Anxiety Disorder 7-item (GADS-7) Scale (See, Tables 157 and 158). See, Spitzer, “A brief measure for assessing generalized anxiety disorder—the GAD-7”, Arch. Intern. Med., 2006, 166(10):1092-1097.

## CN[C@]1(c2ccccc2Cl)CCCCC1=O [esketamine, (S)-2-(2-chlorophenyl)-2-(methylamino)cyclohexanone]
[1]; Day 1 (DB): 4 H
  BHS total score change, Diff. of LS Means (minus Placebo): −1.5
  BHS total score, change from baseline, mean: −4.1
  BHS total score, change from baseline, median: −2.0
  BHS total score, mean: 12.3
  BHS total score, median: 14.0
[1]; End Point (DB)
  BHS total score change, Diff. of LS Means (minus Placebo): −2.3
  BHS total score, change from baseline, mean: −10.3
  BHS total score, change from baseline, median: −11.0
  BHS total score, mean: 6.2
  BHS total score, median: 4.0
[2]; Period 1, 28 mg
  GAD-7 LS mean difference from placebo (SE): −0.21 (1.461)
  GAD-7 change from baseline to end point, LS mean (SE): −1.5 (1.34)
[2]; Period 1, 56 mg
  GAD-7 LS mean difference from placebo (SE): −1.40 (1.478)
  GAD-7 change from baseline to end point, LS mean (SE): −3.1 (1.34)
[2]; Period 1, 84 mg
  GAD-7 LS mean difference from placebo (SE): −3.44 (1.414)
  GAD-7 change from baseline to end point, LS mean (SE): −5.1 (1.30)
[2]; Period 2, 28 mg
  GAD-7 LS mean difference from placebo (SE): −2.02 (1.089)
  GAD-7 change from baseline to end point, LS mean (SE): −1.6 (0.87)
[2]; Period 2, 56 mg
  GAD-7 LS mean difference from placebo (SE): 0.60 (1.033)
  GAD-7 change from baseline to end point, LS mean (SE): 1.0 (0.98)
[2]; Period 2, 84 mg
  GAD-7 LS mean difference from placebo (SE): −1.25 (1.205)
  GAD-7 change from baseline to end point, LS mean (SE): −0.9 (1.02)
